In patent US20260250412A1, “COMBINATION OF ANTIBODY-DRUG CONJUGATE AND ANTI-PD-1 ANTIBODY, AND USE THEREOF” (GENEQUANTUM HEALTHCARE (SUZHOU) CO., LTD., priority 2023, published 2026):

Legend:
[1] = tested on: NCI-N87 mouse xenograft tumor; test: In vivo efficacy, NCI-N87 mouse xenograft tumor; design: species or system BALB/c nude mice; details: Table 14, BIW*6, 3 mg/kg
[2] = tested on: human breast cancer BR-05-0028 model; test: In vivo efficacy, human breast cancer BR-05-0028 mouse xenograft tumor; design: species or system BALB/c nude mice
Method: II. The tumor diameter was measured with a vernier caliper and the tumor volume was calculated according to the formula V=0.5a×b^2 (where a is the longest diameter of the tumor and b is the shortest diameter of the tumor). […] Animals in each group were administered by tail vein injection, and the control group was given an equal volume of vehicle. […] T/C and TGI values were calculated using tumor volume. The calculation formula is as follows: T/C %=TRTV/CRTV×100% (TRTV: RTV of the treatment group; CRTV: RTV of the vehicle control group). The relative tumor volume (RTV) was calculated based on the results of tumor measurement, and the calculation formula was RTV=Vt/V0, where V0 was the average tumor volume measured at the time of grouping (i.e., D0), Vt was the average tumor volume at one measurement, and TRTV and CRTV took the same day of data.
The human breast cancer BR-05-0028 model (IHC 3±) was derived from tumor samples resected in clinical surgery. The tumor samples were inoculated into nude mice at the P0 generation, and the tumor tissue used in this example was the P5 generation. Tumor tissue with a volume of about 30 mm^3 was subcutaneously inoculated into the right back dorsum of SPF female BALB/c nude mice aged 6-8 weeks.

[3] = tested on: MDA-MB-468 mouse xenograft tumor; test: In vivo efficacy, MDA-MB-468 mouse xenograft tumor; design: species or system BALB/c Nude mice; details: 4.5 mg/kg, intravenously
Method: The MDA-MB-468 tumor cells (ATCC, HTB-132) were maintained in vitro as a monolayer culture in L-15 medium supplemented with 10% fetal bovine serum and 1% Antibiotic-Antimycotic at 37° C. in an atmosphere of 0% CO2 in air. The cells growing in an exponential growth phase will be harvested and counted for tumor inoculation. For in vivo anti-tumor efficacy study, 10×10^6 MDA-MB-468 human breast cancer cells (Trop2 positive) in 0.2 mL of PBS with Matrigel (1:1) were inoculated subcutaneously in the right flank in BALB/c Nude mice. […] The tumor volume was measured twice weekly with a caliper. T/C and TGI values were calculated using tumor volume.

[4] = Table 15, BIW*6, 5 mg/kg, Day 21

Trodelvy
Tumor volume (mm^3) Day 32 [1]: 864 ± 114 mm^3
T/C (%) ([1]; Day 32): 65.85%
TGI (%) ([1]; Day 32): 41.10%
Tumor volume (mm^3) Day 0 ([1]; baseline at grouping): 227 ± 21 mm^3
Tumor volume (mm^3) Day 21 ([2]; Table 15, BIW*6, 5 mg/kg): 5 ± 2 mm^3
T/C (%) [2, 4]: 0.35%
TGI (%) [2, 4]: 111.76%
Tumor volume (mm^3) Day 0 ([2]; Table 15, BIW*6, 5 mg/kg, baseline at grouping): 171 ± 29 mm^3
tumor growth inhibition (in words) ([2]; effect example 3.1.3, 5 mg/kg (ADC-1 also 10 mg/kg), after 21 days): able to significantly inhibit tumor growth
Tumor volume (mm^3) on day 35 [3]: 535 ± 60 mm^3
T/C (%) ([3]; day 35): 78.73%
TGI (%) ([3]; day 35): 29.24%
